Measured values published in paper PMC9025336 (Antibiotics, 2022).
Converted amounts (≈) assume the structure as drawn. Where two headings read alike, the source gives them in different places. Ends that are not written are not given here. Peptide text beside a SMILES is read from it.

Experiments:
[1] = target: 70S ribosome extract of E. coli BW25113 (E. coli BW25113 (endogenous)); test: fluorescence polarisation; competition: unlabeled peptide (2-fold series from 656 µmol/L) pre-incubated with BW25113 ribosome extract (28 °C, 90 min), then cf-Api137 (10 µL, 80 nmol/L) added (28 °C, 90 min); ribosome preparation buffer; Ki calculated from IC50
[2] = target: 70S ribosome extract of E. coli BW25113 (E. coli BW25113 (endogenous))
[3] = target: 70S ribosome extract of E. coli BW25113 (E. coli BW25113 (endogenous)); test: fluorescence polarisation; competition: unlabeled peptide (2-fold series from 656 µmol/L) pre-incubated with BW25113 ribosome extract (28 °C, 90 min), then cf-Onc112 (10 µL, 80 nmol/L) added (28 °C, 90 min); ribosome preparation buffer; Ki calculated from IC50
[4] = lysates of E. coli Rosetta pLysS; details: 37 °C, up to 24 h
[5] = lysates of E. coli BW25113; details: E. coli BW25113, 37 °C, up to 24 h
[6] = system: E. coli Rosetta DE3 pLysS; test: MIC, liquid broth microdilution; assay type: cell-based, Escherichia coli; details: 25% MHBII medium, 7.5 × 10^6 CFU/mL, 37 °C, 20 ± 2 h, turbidity 600 nm, at least twice in triplicate
Protocol: (§1) The minimal inhibitory concentrations (MIC) were determined at least twice in triplicate using a liquid broth microdilution assay in sterile 96-well plates and a total volume of 100 μL per well. Aqueous peptide solutions were serially 2-fold diluted in 25% MHBII or 33% TSB medium in a volume of 50 µL. An overnight culture was diluted in 25% MHBII or 33% TSB medium to 1.5 × 10^7 CFU/mL, and an aliquot of 50 μL was added to each well. The final cell count in each well was 7.5 × 10^6 CFU/mL. The plates were incubated at 37 °C for 20 ± 2 h. The turbidity of each well was measured at a wavelength of 600 nm. The MIC was defined as the lowest peptide concentration where the turbidity was identical to medium only.

[7] = system: E. coli BL21 (DE3) RIL ribosome extract; details: values published for E. coli BL21 (DE3) RIL ribosome extract; read-out: Kd (printed in column Ros); cited from earlier work
Description: Table 2 Antibacterial activities, dissociation (Kd), and inhibition constants (Ki) of ribosome binding obtained for all PrAMPs included in the current study for E. coli strains BW25113 (BW) and Rosetta DE3 pLysS (Ros). | column: Kd [µmol/L] ** / Ros

[8] = system: E. coli BL21 (DE3) RIL ribosome extract; details: values published for E. coli BL21 (DE3) RIL ribosome extract; read-out: Ki, cf-Onc112; cited from earlier work
Description: Table 2 Antibacterial activities, dissociation (Kd), and inhibition constants (Ki) of ribosome binding obtained for all PrAMPs included in the current study for E. coli strains BW25113 (BW) and Rosetta DE3 pLysS (Ros). | column: Ki [µmol/L] *** / cf-Onc112

[9] = system: E. coli BW25113; assay type: cell-based, Escherichia coli; details: BW25113, 2 h
Protocol: as §1, with “The plates were incubated at 37 °C for 20 ± 2 h.” left out

[10] = system: E. coli BL21 (DE3) RIL ribosome extract; details: values published for E. coli BL21 (DE3) RIL ribosome extract; read-out: Ki, cf-Api137; cited from earlier work
[11] = target: 70S ribosome extract of E. coli BW25113 (E. coli BW25113 (endogenous)); remark: listed apart in the source

Molecule | Ki [1] [nM] | Ki [3] [nM] | fragment found [4] | fragment found [5] | other results
Api137 (peptide) | 2 | 219 |  |  | inhibition of in vitro translation of GFP (PureExpress Delta RF123 kit with the kit's own ribosomes, RF1 added), GFP fluorescence relative to no PrAMP; peptide 0.05, 5 and 50 µmol/L [2]: 77%
GNNRPIYIPRPRPPHPRPIRV-OH |  |  | Api805 1-16 (GNNRPIYIPRPRPPHP-OH), major | Api805 1-16 (GNNRPIYIPRPRPPHP-OH), major | 
gu-ONNRPVYIPRPRPPHPRL-OH |  |  | Api137 1-17 (Gu-ONNRPVYIPRPRPPHPR-OH), major | Api137 1-17 (Gu-ONNRPVYIPRPRPPHPR-OH), major | 
CC[C@H](C)[C@H](NC(=O)[C@@H]1CCCN1C(=O)[C@H](CCCNC(=N)N)NC(=O)[C@@H]1CCCN1C(=O)[C@H](Cc1c[nH]cn1)NC(=O)[C@H](CO)NC(=O)[C@@H](NC(=O)[C@@H]1CCCN1C(=O)[C@H](CCCNC(=N)N)NC(=O)[C@@H]1CCCN1C(=O)[C@H](CO)NC(=O)[C@H](Cc1ccc(O)cc1)NC(=O)[C@@H]1CCCN1C(=O)[C@H](CCCNC(=N)N)NC(=O)[C@@H]1CCCN1C(=O)[C@H](CCCCN)NC(=O)CN)[C@@H](C)O)C(=O)N[C@@H](CCCNC(=N)N)C(=O)N[C@H](C(=O)O)C(C)C [Drosocin] (H-GKPRPYSPRPTSHPRPIRV-OH; N-terminus assumed) |  |  |  |  | MIC, Ros [6]: 8 µg/mL (≈ 3.64 µM); Kd [7]: 1080 nM; Ki [8]: 1780 nM; MIC, BW [9]: 128 µg/mL (≈ 58.2 µM); Ki [10]: 9 nM
GNNRPIYIPRPRPPHPRPIRV-OH [Api805] | 1070 | 489 |  |  | inhibition of in vitro translation of GFP (PureExpress Delta RF123 kit with the kit's own ribosomes, RF1 added), GFP fluorescence relative to no PrAMP; peptide 0.05, 5 and 50 µmol/L [11]: 52%; inhibition of in vitro translation of GFP (PureExpress Delta RF123 kit with the kit's own ribosomes, no release factor), GFP fluorescence relative to no PrAMP; peptide 0.05, 5 and 50 µmol/L [11]: 38%
